Source: the NIST ThermoML archive (doi:10.1021/je049762q)

Experiment: molar heat capacity at constant pressure
Details: 101.33 kPa

Brc1ccc(Br)cc1 [1,4-dibromobenzene]
molar heat capacity at constant pressure [J/K/mol]
Details | Crystal | Liquid
157.47 K | 93.92 | –
160 K | 94.86 | –
160.49 K | 95.04 | –
163.52 K | 96.13 | –
166.54 K | 97.21 | –
169.55 K | 98.29 | –
170 K | 98.46 | –
172.58 K | 99.4 | –
175.6 K | 100.5 | –
178.62 K | 101.59 | –
180 K | 102.09 | –
181.65 K | 102.69 | –
184.69 K | 103.79 | –
187.72 K | 104.9 | –
190 K | 105.74 | –
190.75 K | 106.01 | –
193.79 K | 107.09 | –
196.83 K | 108.2 | –
199.86 K | 109.24 | –
200 K | 109.29 | –
202.9 K | 110.27 | –
205.94 K | 111.41 | –
208.97 K | 112.54 | –
210 K | 112.91 | –
212.01 K | 113.63 | –
215.05 K | 114.77 | –
218.09 K | 115.88 | –
220 K | 116.57 | –
221.12 K | 116.98 | –
224.16 K | 118.12 | –
227.19 K | 119.19 | –
230 K | 120.22 | –
230.23 K | 120.31 | –
233.27 K | 121.42 | –
236.31 K | 122.55 | –
239.34 K | 123.69 | –
240 K | 123.94 | –
242.38 K | 124.8 | –
245.41 K | 125.94 | –
248.44 K | 127.13 | –
250 K | 127.69 | –
251.48 K | 128.22 | –
254.52 K | 129.34 | –
257.56 K | 130.47 | –
260 K | 131.36 | –
260.6 K | 131.58 | –
263.64 K | 132.68 | –
266.67 K | 133.83 | –
269.71 K | 134.94 | –
270 K | 135.04 | –
272.74 K | 136.06 | –
275.78 K | 137.2 | –
278.81 K | 138.23 | –
280 K | 138.63 | –
281.84 K | 139.24 | –
284.87 K | 140.31 | –
287.9 K | 141.45 | –
290 K | 142.24 | –
290.93 K | 143.08 | –
292.89 K | 143.33 | –
293.96 K | 143.64 | –
295.8 K | 144.5 | –
296.99 K | 144.79 | –
298.15 K | 145.34 | –
298.79 K | 145.71 | –
300 K | 145.97 | –
300.02 K | 145.98 | –
301.84 K | 146.94 | –
303.03 K | 147.07 | –
304.88 K | 148.06 | –
306.05 K | 148.21 | –
307.92 K | 149.18 | –
309.07 K | 149.34 | –
310 K | 149.79 | –
310.96 K | 150.23 | –
312.09 K | 150.47 | –
314 K | 151.06 | –
317.04 K | 152.02 | –
320 K | 153.12 | –
320.07 K | 153.14 | –
323.1 K | 154.4 | –
326.13 K | 155.58 | –
329.16 K | 156.76 | –
330 K | 157.09 | –
332.19 K | 157.97 | –
335.22 K | 159.26 | –
338.24 K | 160.5 | –
340 K | 161.27 | –
341.26 K | 161.81 | –
344.28 K | 163.16 | –
347.3 K | 164.65 | –
350 K | 166.05 | –
350.32 K | 166.28 | –
360 K | 171.43 | –
360.48 K | 171.7 | 190.38
362.85 K | – | 190.92
363.89 K | – | 191.22
365.71 K | – | 191.62
366.91 K | – | 191.91
368.72 K | – | 192.27
369.93 K | – | 192.55
370 K | – | 192.57
371.72 K | – | 192.9
372.94 K | – | 193.22
374.79 K | – | 193.57
377.7 K | – | 194.15
380 K | – | 194.61
380.68 K | – | 194.75
